Data on three compounds can be found in paper PMC8042727, “Apoptosis-like cell death upon kinetoplastid induction by compounds isolated from the brown algae Dictyota spiralis” (Parasites & Vectors, 2021).

Holding throughout (assay type): cell-based
Data set [1] can be described thus: Cytotoxicity on macrophages (AlamarBlue, 24 h). The note with it: mouse, J774A.1 macrophages, J774A.1, 24 h, read-out: CC50: murine macrophages. As to the method:
Cytotoxicity of the tested molecules was evaluated after 24 h using macrophages of the murine cell line J774.A1 (American Type Culture Collection #TIB-67). The cells were maintained in DMEM medium at 37 °C in a 5% CO2 humidified incubator. The viability of the macrophages was determined with the AlamarBlue assay and the emitted fluorescence was assayed in an Enspire microplate reader (PerkinElmer Inc.) at 570/585 nm. Briefly, 50 µl of macrophages was placed in a 96-well flat bottom plate at a density of 2 × 10^5/ml in RPMI medium supplemented with 10% FBS without phenol. Cells were allowed to adhere for 15 min, and their progress was checked using a Leika inverted microscope (Leika Camera AG, Wetzlar, Germany). At the same time, a serially dilution of the test compounds was made in a deep 96-well plate with the same medium, and then 50 µl of each serially diluted molecule was added to each well of the 96-well flat bottom plate. Finally, 10% of AlamarBlue was added to each well. The plates were incubated at 37 °C in 5% CO2 for 24 h. Dose–response curves were plotted and the 50% cytotoxic concentrations (CC50) were obtained. The analyses were performed in triplicate.

Data set [2] relates to Leishmania amazonensis promastigotes. In words: Anti-promastigotes assay (AlamarBlue, 72 h). The settings on record: for IC50: 72 h, read-out: IC50: promastigote; for IC90: nonlinear regression of AlamarBlue curve, read-out: IC90 Leishmania amazonensis: promastigote. The procedure:
Experiments including in vitro activity assays of isolated compounds 1–3 were performed against the promastigote and amastigote stages of Leishmania amazonensis (MHOM/BR/77/LTB0016) and the epimastigote stage of Trypanosoma cruzi (Y strain). Promastigotes of L. amazonensis were cultured in Schneider’s medium (Sigma-Aldrich, St. Louis, MO, USA). Typanosoma cruzi strain Y was cultured in liver Infusion tryptose (LIT) medium.
The bioassay was performed using the AlamarBlue® method as previously described. Promastigotes of L. amazonensis were grown at 26 °C in RPMI 1640 modified medium (Gibco BRL Life Technologies Inc., Gaithersburg, MD, USA) and supplemented with 10% heat-inactivated fetal bovine serum (FBS). Cultures in the logarithmic phase were seeded in sterilized 96-well microtiter plates (Corning™, Corning, NY, USA) (10^6 parasites/ml) containing the samples dissolved in 1% DMSO at the suitable concentration to be tested in serial dilutions, and Leishmania medium (RPMI 1640) was used to reach a final volume of 200 μl per well; then 10% of AlamarBlue® was added to the entire plate. After an incubation of 72 h, the plate was checked visually using an inverted microscope, then analyzed using an Enspire multimode plate reader (PerkinElmer, Inc., Waltham, MA, USA) at excitation and emission wavelengths of 570 and 585 nm, respectively. Dose–response curves were plotted, and the concentration at which one half of the maximal inhibitory effect was obtained (IC50) was determined. The analyses were performed in triplicate.
(§1) Hoechst dye is a blue-fluorescent dye that stains condensed chromatin of apoptotic cells. To detect DNA condensation, the chromatin condensation/dead cell apoptosis kit was used (Invitrogen, Thermo Fisher Scientific, Waltham, MA, USA). Cells were incubated in the presence of the compounds to be tested at IC90. The IC90 values were determined using nonlinear regression of the AlamarBlue® curve. After 24 h of incubation, cells were harvested and resuspended in medium, following which 1 μl of Hoechst 33342 stock solution was added to parasites and incubated for 20 min. Results were analyzed by cell imaging using the Evos FL cell imaging system (Thermo Fisher Scientific). The experiments were repeated using a double-stain apoptosis detection kit (Hoechst 33342/PI; Thermo Fisher Scientific). […] A positive control was also tested: miltefosine (L. amazonensis) and benznidazole (T. cruzi).
Background: Resazurin is reduced to fluorescent resorufin, in cell work by metabolically active cells.

Data set [3] has as its system Trypanosoma cruzi epimastigotes (Y strain). In words: In vitro evaluation on T. cruzi epimastigotes (AlamarBlue, 72 h). The settings on record: for IC50: 72 h, read-out: IC50: epimastigote; for IC90: nonlinear regression of AlamarBlue curve, read-out: IC90 Trypanosoma cruzi: epimastigote. The procedure: Experiments including in vitro activity assays of isolated compounds 1–3 were performed against the promastigote and amastigote stages of Leishmania amazonensis (MHOM/BR/77/LTB0016) and the epimastigote stage of Trypanosoma cruzi (Y strain). Promastigotes of L. amazonensis were cultured in Schneider’s medium (Sigma-Aldrich, St. Louis, MO, USA). Typanosoma cruzi strain Y was cultured in liver Infusion tryptose (LIT) medium. The three molecules 1-3 were tested against epimastigotes of T. cruzi. Briefly, the molecules were dissolved in DMSO in 96-well plates and a serially diluted concentration was made in 100 μl of LIT medium supplemented with 10% heat-inactivated FBS. In all tests, a maximum of 1% DMSO was used to dissolve the highest dose of the compounds without inducing any effects on the parasites; epimastigotes in the logarithmic growth phase were then counted, adjusted to 5 × 10^5 cells/ml, distributed on the previous 96-well plate and incubated at 27 °C for 72 h. The plate was observed under an inverted microscope after 72 h of incubation and analyzed statistically as described for the leishmanicidal test. Hoechst dye is a blue-fluorescent dye that stains condensed chromatin of apoptotic cells. To detect DNA condensation, the chromatin condensation/dead cell apoptosis kit was used (Invitrogen, Thermo Fisher Scientific, Waltham, MA, USA). Cells were incubated in the presence of the compounds to be tested at IC90. The IC90 values were determined using nonlinear regression of the AlamarBlue® curve. After 24 h of incubation, cells were harvested and resuspended in medium, following which 1 μl of Hoechst 33342 stock solution was added to parasites and incubated for 20 min. Results were analyzed by cell imaging using the Evos FL cell imaging system (Thermo Fisher Scientific). The experiments were repeated using a double-stain apoptosis detection kit (Hoechst 33342/PI; Thermo Fisher Scientific). […] A positive control was also tested: miltefosine (L. amazonensis) and benznidazole (T. cruzi).

The subject of data set [4] is Leishmania amazonensis. In words: ATP level (CellTiter-Glo). The settings on record: L. amazonensis, IC90, 24 h, relative to negative control. As to the method:
The CellTiter-Glo® luminescent cell viability assay (Promega, WI, USA) was used to quantify the adenosine triphosphate (ATP) concentration. Cells of the kinetoplastid strains (for both L. amazonensis [2 × 10^6 cells/ml] and T. cruzi [5 × 10^5cells/ml]) were incubated for 24 h with the compounds to be tested, at IC90 and 26 °C. After incubation, the cells were centrifuged and resuspended in 100 μl. To this volume, we added 100 μl of the reactive in white 96-well plates. After incubation, the luminescence signal was measured using the Enspire multimode plate reader. The decrease in ATP level was expressed as a percentage relative to the negative control. Miltefosine and benznidazole were tested as the positive control for L. amazonensis and T. cruzi, respectively.
A general note: Cellular ATP, detected with luciferase, serves as a proxy for viable cell number.

Data set [5] deals with Leishmania amazonensis promastigotes. Nature of the data set: DNA condensation assay (Hoechst 33342 / PI). The note with it: L. amazonensis promastigotes, IC90, 24 h. As to the method: as §1
DNA condensation is an important cellular event, providing evidence of apoptotic cell death. Hoechst dye is a blue-fluorescent dye that stains condensed chromatin. […] Also, using propidium iodine (PI), it is possible to distinguish dead cells, which stain red when PI penetrates the nucleus. The results of staining were evaluated using cell imaging. Different microscopy images are regrouped in Fig. 2 (for L. amazonensis) and Fig. 3 (for T. cruzi). […] A clear reduction in cell number is also evident.

By CC50 is commonly meant the concentration at which the toxic effect on the cells reaches its halfway point. In general, IC50 refers to the concentration that inhibits the measured activity by half. A word on the IC90: it is the point of the concentration-response curve where the effect stands at 90%. As for `CC(C)=CCC[C@](C)(O)[C@@H]1CC[C@@H](C)[C@@H]2CC=C(C)[C@H]2[C@@H]1O` [Compound 1, pachydictyol C], the half-maximal cytotoxic concentration (CC50) at 24 h in data set [1] was found to be 37 ± 2.74 µM. Moreover, in data set [2], the IC50 is 18.9 ± 5.28 µM and the IC90 was found to be 39.5 µM. Moreover, in data set [3], the half-maximal inhibitory concentration (IC50) is 13.1 ± 3.62 µM and the 90% effect concentration (IC90) is 75.4 µM.
With `C=C1CC[C@@H]([C@@](C)(O)CCC=C(C)C)[C@@H](O)[C@@H]2C(C)=CC[C@@H]12` [Compound 2, dictyol E], the CC50 at 24 h in data set [1] turned out to be 52.1 ± 6.63 µM. Also, in data set [2], the IC50 was 18.9 ± 0.42 µM and the IC90 was determined as 34.9 µM. Further, in data set [3], the half-inhibitory concentration (IC50) came to 18.3 ± 0.91 µM and the 90% effect concentration (IC90) was determined as 104 µM. In data set [4], the “loss of ATP concentration” value is listed as 26.6%. Further, the “chromatin condensation / cell death stage (Hoechst/PI staining)” value in data set [5] was “late apoptotic stage”.
For the compound `C=C(C)[C@H]1CC[C@]2(C)C[C@@H]3O[C@@]3(C)CC/C=C(\C)CC[C@@H]12` [Compound 3, 3,4-epoxy-7,18-dolabelladiene], the CC50 at 24 h in data set [1] stood at 69.98 ± 0.13 µM. In data set [2], the IC90 was found to be 74.9 µM. Also, in data set [3], the IC50 is 35.3 ± 4.09 µM and the concentration for an effect of 90% (IC90) came to 140 µM. The “chromatin condensation / cell death stage (Hoechst/PI staining)” value in data set [5] is “late apoptotic stage”.
